The target of assay [1] is T1, Leucine aminopeptidase (Plasmodium falciparum 3D7, UniProt Q8IL11).
T1 sequence (Q8IL11 whole entry): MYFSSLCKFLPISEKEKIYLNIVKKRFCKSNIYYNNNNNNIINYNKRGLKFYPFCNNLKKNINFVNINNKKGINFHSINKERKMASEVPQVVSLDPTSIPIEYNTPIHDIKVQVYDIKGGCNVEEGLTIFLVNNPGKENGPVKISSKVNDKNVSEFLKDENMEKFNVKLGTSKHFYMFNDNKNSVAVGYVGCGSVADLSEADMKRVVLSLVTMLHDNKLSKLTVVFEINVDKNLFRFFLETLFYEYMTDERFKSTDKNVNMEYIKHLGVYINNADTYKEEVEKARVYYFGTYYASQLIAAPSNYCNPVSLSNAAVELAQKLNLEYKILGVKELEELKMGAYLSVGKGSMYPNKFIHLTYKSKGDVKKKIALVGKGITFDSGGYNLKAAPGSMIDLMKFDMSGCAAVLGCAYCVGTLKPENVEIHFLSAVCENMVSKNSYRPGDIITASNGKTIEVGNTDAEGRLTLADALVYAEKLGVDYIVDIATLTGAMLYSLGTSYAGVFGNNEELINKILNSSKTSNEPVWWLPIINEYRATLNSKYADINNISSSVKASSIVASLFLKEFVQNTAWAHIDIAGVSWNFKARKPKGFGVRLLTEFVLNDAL
In words: P. falciparum M17LAP inhibitors, primary screen, biochemical, fluorogenic H-Leu-NHMec substrate, 1536-well (AID 1619). It is filed as functional.

Assay [2] deals with Procathepsin L (Homo sapiens, UniProt P07711). In words: cathepsin L inhibitors, dose response, counter-screen for M1/M17 aminopeptidase inhibitor project, biochemical, QFRET, 1536-well (AID 2214). For orientation: A counterscreen serves to expose hits that act by an unwanted route or on another target.
Procathepsin L, sequence (P07711 whole entry): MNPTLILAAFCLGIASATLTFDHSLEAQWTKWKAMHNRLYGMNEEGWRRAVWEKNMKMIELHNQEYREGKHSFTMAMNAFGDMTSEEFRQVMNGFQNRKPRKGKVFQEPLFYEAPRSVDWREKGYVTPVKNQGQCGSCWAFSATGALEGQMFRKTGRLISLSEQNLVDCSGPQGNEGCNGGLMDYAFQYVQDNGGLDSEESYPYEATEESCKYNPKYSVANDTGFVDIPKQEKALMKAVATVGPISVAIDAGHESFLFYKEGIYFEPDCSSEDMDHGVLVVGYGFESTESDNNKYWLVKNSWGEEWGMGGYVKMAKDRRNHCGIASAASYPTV
The target of assay [3] is T2, Aspartyl aminopeptidase (Plasmodium falciparum 3D7, UniProt Q8I2J3).
T2 sequence (Q8I2J3 whole entry): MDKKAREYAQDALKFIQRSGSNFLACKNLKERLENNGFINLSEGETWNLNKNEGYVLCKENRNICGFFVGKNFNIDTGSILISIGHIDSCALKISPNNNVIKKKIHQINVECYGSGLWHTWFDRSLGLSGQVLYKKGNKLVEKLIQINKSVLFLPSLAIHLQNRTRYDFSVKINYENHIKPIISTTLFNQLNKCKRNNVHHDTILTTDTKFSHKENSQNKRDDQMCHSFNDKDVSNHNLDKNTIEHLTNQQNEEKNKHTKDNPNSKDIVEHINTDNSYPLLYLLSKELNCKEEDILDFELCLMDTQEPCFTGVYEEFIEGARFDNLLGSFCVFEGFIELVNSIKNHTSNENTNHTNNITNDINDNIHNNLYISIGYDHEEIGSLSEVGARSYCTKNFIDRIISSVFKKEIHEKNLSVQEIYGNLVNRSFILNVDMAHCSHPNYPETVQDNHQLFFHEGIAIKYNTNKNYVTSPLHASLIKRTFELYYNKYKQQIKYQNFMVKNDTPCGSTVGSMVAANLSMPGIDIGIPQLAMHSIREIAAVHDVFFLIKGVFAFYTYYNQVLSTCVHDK
In words: Counterscreen for inhibitors of M1 and M17 aminopeptidases: QFRET-based biochemical high throughput dose response assay for inhibitors of the Plasmodium falciparum M18 Aspartyl Aminopeptidase (PFM18AAP). [Related PubChem assays: 1619 (Screening assay (M17LAP inhibitors).), 1445 (Screening assay (M1AAP inhibitors).)].

Assay [4] has as its target T3, Estrogen receptor beta (Homo sapiens, UniProt Q92731).
In assay [5] the target is T4, Estrogen receptor (Homo sapiens, UniProt P03372).
T4 sequence (P03372 whole entry): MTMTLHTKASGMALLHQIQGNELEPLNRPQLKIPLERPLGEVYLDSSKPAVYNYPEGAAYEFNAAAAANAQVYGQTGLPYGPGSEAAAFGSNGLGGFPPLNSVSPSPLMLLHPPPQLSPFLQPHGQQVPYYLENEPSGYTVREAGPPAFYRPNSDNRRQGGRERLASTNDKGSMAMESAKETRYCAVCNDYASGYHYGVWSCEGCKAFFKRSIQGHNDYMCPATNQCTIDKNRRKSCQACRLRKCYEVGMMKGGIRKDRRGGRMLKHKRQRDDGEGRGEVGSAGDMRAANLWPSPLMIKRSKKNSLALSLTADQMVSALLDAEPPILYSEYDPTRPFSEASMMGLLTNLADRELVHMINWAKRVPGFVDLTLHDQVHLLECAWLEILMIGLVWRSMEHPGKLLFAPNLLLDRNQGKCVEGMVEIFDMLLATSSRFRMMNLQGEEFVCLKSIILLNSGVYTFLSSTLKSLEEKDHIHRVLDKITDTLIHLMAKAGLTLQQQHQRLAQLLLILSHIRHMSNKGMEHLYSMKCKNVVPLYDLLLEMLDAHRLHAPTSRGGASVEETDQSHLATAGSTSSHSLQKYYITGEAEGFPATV

Assay [6] has as its target T3, Estrogen receptor beta. Put plainly: ERβ–SRC-3 coactivator interaction inhibitors, confirmation, orthogonal assay, biochemical, ELISA, streptavidin-HRP readout (AID 1060). (In an ELISA, binding on a coated surface is turned into a signal by an enzyme label.)
The target in assay [7] is ATP-dependent molecular chaperone HSP82 (Candida albicans (strain WO-1) (Yeast), UniProt C4YTQ8). Put plainly: loss of DOC-induced GRE-beta-galactosidase reporter signal, dose response, Hsp90 inhibitor project, S. cerevisiae, luminescence (AID 2400).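 Note: beta-galactosidase luminescence from glucocorticoid response element reporter as proxy for Hsp90 function; inhibitor potency where signal loss means Hsp90 inhibition.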 It is filed as functional, cell-based.
ATP-dependent molecular chaperone HSP82, sequence (C4YTQ8 whole entry): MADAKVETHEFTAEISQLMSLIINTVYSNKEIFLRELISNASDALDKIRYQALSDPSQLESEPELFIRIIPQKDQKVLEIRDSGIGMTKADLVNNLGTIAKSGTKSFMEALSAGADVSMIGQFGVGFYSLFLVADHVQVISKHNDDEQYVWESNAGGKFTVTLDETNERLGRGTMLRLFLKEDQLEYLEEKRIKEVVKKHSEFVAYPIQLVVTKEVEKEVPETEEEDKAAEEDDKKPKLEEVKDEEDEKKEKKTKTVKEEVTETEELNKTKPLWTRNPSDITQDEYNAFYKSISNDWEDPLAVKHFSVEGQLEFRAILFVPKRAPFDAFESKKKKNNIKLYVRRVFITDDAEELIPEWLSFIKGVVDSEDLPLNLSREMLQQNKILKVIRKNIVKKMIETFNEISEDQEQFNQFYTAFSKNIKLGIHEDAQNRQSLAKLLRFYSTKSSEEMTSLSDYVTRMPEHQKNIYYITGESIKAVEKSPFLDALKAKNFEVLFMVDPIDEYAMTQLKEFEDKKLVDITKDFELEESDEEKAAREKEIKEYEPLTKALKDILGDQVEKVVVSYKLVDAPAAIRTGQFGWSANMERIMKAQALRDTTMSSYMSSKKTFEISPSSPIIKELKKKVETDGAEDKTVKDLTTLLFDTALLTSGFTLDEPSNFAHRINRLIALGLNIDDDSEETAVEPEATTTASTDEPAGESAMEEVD
The nature of assay [8]: inhibitors of SNCA 5'UTR-driven reporter translation, confirmation, H4 neuroglioma cells, luminescence (AID 1988). It is filed as functional, cell-based.
Assay [9] deals with Paired box protein Pax-8 (Homo sapiens, UniProt Q06710). Put plainly: inhibitors of PAX8-driven TPO luciferase reporter, dose response, RMG-I cells, cherry-pick (AID 687027).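 Note: luciferase reporter driven by Pax8 target thyroperoxidase promoter measured by SteadyGlo luminescence.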 It is filed as functional, cell-based. A general note: Reporter assays use an easily measured gene product as a stand-in for the process of interest.
Paired box protein Pax-8, sequence (Q06710 whole entry): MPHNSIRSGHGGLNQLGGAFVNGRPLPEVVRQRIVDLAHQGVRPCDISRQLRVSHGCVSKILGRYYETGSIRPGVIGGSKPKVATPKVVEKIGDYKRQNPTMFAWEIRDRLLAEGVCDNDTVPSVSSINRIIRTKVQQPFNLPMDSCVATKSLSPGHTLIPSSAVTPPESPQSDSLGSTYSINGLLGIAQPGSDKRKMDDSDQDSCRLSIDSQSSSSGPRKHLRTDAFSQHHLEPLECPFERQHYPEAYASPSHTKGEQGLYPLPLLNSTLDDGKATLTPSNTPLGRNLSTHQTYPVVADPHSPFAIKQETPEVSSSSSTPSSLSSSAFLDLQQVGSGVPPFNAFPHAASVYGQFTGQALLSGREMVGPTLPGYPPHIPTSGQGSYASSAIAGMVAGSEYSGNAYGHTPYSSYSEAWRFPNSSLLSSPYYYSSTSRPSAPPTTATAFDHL
Assay [10] can be described thus: cytotoxicity toward DRD oncogenic fibroblasts, dose response, cell-based, non-viral oncogenic, luminescence (AID 1934). It is filed as functional. As to conditions: Homo sapiens.
Assay [11] has as its system BJ. Put plainly: cytotoxicity toward BJ-TERT fibroblasts, dose response, cell-based, RAS-independent, luminescence (AID 1933). It counts as functional. As to conditions: Homo sapiens.
The test system of assay [12] is BJ. In words: cells. As to conditions: Homo sapiens. It counts as functional, cell-based.
The test system of assay [13] is BJ. In words: cytotoxicity toward BJ-TERT-LT-ST fibroblasts, dose response, cell-based, RAS-independent, luminescence (AID 1935).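 Note: BJ fibroblasts immortalized with TERT plus LT and ST oncogenes.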 As to conditions: Homo sapiens. It is filed as functional.
Assay [14] is described as follows: NIH-3T3 fibroblast cytotoxicity, dose response, cytotoxicity control, cell-based, fluorescence, Alamar Blue, secondary assay (AID 2327).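 Note: NIH-3T3 mouse fibroblasts cultured with fluconazole at 8 µg/mL.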 It is filed as functional.
Assay [15] in a line: growth suppression of beta-catenin-knockout colon cells, dose response, cell-based, HCT116, human colon tumor (AID 1045).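 Note: HCT116 colon tumor cells with beta catenin knocked out; cells exposed to compound for 60 hours.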 It is filed as functional.
A short description of assay [16]: growth suppression of PTEN-null colon cells, dose response, cell-based, HCT116 PTEN knockout (AID 1047).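 Note: HCT116 colon tumor cells with PTEN knocked out; cells exposed to compound for 60 hours before readout; potency for loss of cell viability measured by luminescence.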 It is filed as functional.
Assay [17] addresses T5, Serine/threonine-protein phosphatase (Candida dubliniensis (strain CD36 / CBS 7987 / NCPF 3949 / NRRLY-17841) (Yeast), UniProt B9W6M3).
T5 sequence (B9W6M3 whole entry): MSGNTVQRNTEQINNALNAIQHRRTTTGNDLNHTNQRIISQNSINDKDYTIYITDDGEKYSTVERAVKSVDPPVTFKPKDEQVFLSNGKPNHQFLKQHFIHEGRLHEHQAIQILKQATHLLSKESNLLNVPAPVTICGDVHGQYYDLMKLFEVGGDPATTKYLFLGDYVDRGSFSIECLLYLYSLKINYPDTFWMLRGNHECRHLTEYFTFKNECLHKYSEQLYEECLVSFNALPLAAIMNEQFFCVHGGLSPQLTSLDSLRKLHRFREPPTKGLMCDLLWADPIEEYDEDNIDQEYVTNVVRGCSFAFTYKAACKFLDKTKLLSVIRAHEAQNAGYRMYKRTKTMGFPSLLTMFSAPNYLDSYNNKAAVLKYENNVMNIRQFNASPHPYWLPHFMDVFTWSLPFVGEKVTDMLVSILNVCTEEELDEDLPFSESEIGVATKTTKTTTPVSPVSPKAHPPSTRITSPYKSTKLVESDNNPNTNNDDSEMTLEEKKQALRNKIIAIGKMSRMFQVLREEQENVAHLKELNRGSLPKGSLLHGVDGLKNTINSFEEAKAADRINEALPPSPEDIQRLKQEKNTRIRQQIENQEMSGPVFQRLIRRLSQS
Put plainly: calcineurin pathway inhibitors in yeast reporter, dose response, S. cerevisiae, CDRE-lacZ, luminescence, secondary (AID 2388).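 Note: yeast reporter cells carrying a calcineurin-responsive lacZ construct stimulated with calcium chloride; luminescent beta-galactosidase reporter signal in whole cells rather than isolated phosphatase activity; potency for inhibition where a drop in reporter signal means calcineurin blockade.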 It counts as functional, cell-based.

Assay [18] is described as follows: Luminescence Cell-Based Dose Response HTS to Identify Inhibitors of 5'UTR Stem-Loop Driven Prion Protein mRNA Translation in H4 Neuroglioblastoma Cells. [Related pubchem assays: 1827 (Project Summary), 1813 (Primary HTS)]. It counts as functional.
Assay [19] in a line: C. albicans growth with fluconazole, confirmation, fluorescence, retest (AID 2467). It is filed as functional, cell-based.
For assay [20], the system named is BJ. In words: cytotoxicity toward Ras-transformed BJeLR fibroblasts, dose response, cell-based, alamar blue fluorescence, cherrypicked samples (AID 2631).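 Note: confirmatory dose-response assay in RAS-dependent BJ fibroblasts engineered with TERT, LT and ST, with cytotoxicity read by fluorescence.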 It counts as functional. As to conditions: Homo sapiens.
The nature of assay [21]: nonselective inhibitors of cellular cAMP signaling, dose response, counter-screen for MC4R biased antagonist project, cell-based, TR-FRET cAMP detection (AID 602305).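 Note: U2OS cells stimulated with forskolin near its EC80 as the cAMP inducer; potency is for inhibition of forskolin-stimulated cAMP signaling.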 It counts as functional.
The target in assay [22] is Melanocortin receptor 4 (Homo sapiens, UniProt P32245). Put plainly: MC4R antagonist potency on cAMP, dose response, cell-based, TR-FRET, biased antagonists (AID 602298).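 Note: antagonist potency against agonist-stimulated cAMP production.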 It is filed as functional.
Melanocortin receptor 4, sequence (P32245 whole entry): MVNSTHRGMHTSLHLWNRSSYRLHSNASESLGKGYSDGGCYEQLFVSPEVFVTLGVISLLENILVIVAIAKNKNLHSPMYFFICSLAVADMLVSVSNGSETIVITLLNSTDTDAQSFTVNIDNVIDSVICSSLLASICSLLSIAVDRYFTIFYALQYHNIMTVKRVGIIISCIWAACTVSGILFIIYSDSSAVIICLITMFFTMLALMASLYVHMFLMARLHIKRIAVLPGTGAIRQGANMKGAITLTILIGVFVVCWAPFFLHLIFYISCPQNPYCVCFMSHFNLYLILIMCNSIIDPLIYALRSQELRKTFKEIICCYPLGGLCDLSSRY
Assay [23] can be described thus: inhibitors of firefly luciferase expression or activity, dose response, H4 neuroglioma cells, luminescence (AID 1990). It is filed as functional, cell-based.
Assay [24] can be described thus: Luminescence-based dose response cell-based high throughput screening assay for cytotoxic compounds using the IEC-6 intestinal epithelial cell line. [Related pubchem assays: 1858 (Summary AID.), 1825 (Counterscreen.), 1907 (Confirmation screen.)]. It is filed as functional.

Active and inactive are the calls of the source. Some results are limits rather than exact numbers.

T3 sequence (Q92731 whole entry): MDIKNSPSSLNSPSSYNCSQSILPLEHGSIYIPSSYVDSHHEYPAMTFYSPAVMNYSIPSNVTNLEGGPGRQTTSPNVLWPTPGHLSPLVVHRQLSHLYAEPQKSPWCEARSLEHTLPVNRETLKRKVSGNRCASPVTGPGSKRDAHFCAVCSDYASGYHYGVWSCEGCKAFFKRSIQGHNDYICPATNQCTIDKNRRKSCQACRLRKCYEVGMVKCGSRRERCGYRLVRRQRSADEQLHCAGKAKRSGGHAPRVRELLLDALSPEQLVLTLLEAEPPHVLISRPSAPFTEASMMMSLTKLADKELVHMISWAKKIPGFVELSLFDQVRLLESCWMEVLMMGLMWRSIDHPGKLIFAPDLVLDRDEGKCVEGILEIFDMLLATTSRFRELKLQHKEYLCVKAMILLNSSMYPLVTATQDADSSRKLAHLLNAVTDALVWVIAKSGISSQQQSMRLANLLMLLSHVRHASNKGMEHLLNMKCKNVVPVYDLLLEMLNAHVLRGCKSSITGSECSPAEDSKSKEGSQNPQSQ

As a reminder, the IC50 is the concentration that inhibits the measured activity by half. As to `N#Cc1c(NC(=O)C2C3C=CC(C3)C2C(=O)O)sc2c1CCCCC2` (centres undefined), the IC50 in assay [1] was 1.39 µM (active); in assay [2], > 59.6 µM (not active); in assay [3], > 73.5 µM (not active).

Turning to `O=Cc1ccc2oc3nc4n(c(=O)c3c(=O)c2c1)CCCS4`, the IC50 in assay [4] is > 50 µM (not active); in assay [5] it was 17.8 µM (active); in assay [6] it was > 50 µM (not active).

Usually EC50 stands for the midpoint of the concentration-response curve. Broadly, the AC50 is the concentration at which the activity in the assay is half-maximal. Take `O=C(NC(Nc1nc2ccc([N+](=O)[O-])cc2s1)(C(F)(F)F)C(F)(F)F)c1ccccc1Cl`: the EC50 was 22.6 µM (active) in assay [7]; 0.242 µM (active) in assay [8]; 1.81 µM (active) in [10]; 1.35 µM (active) in assay [11]; 1.41 µM (active) in [12]; 5.65 µM (inconclusive) in assay [13]. For the same compound, the EC50 in assay [14] was 12.3 µM (active); in [15] it was 0.242 µM (active); in [16], 0.234 µM (active); in assay [17], > 180 µM (inactive); in assay [18], 6.53 µM (active); in [19] it was 0.758 µM (active). The EC50 in [20] is 1.11 µM (active); in [23], 0.266 µM (active). Also, the AC50 in assay [9] was 0.676 µM (active). Moreover, the IC50 in assay [21] was > 64.6 µM (inactive); in [22], > 64.6 µM (inactive); in assay [24], 1.64 µM (active).
